Measurements as given in ChEMBL document CHEMBL1201862, “PubChem BioAssay data set” (2004).
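Assay format: 96-well plates, 48-hour exposure. Here, GI50 denotes the concentration required for 50% inhibition of growth.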 Activity calls are given as the source filed them. Cut-off read from the data, not from the text of the source: active = GI50 up to about 1.1 µM and inactive = higher.

How the values were obtained:
Experiment in all cases: NCI anticancer screen, dose series, 48 h
NCI-H460 = tested on: NCI-H460
SW-620 = tested on: SW-620
RXF 393 = tested on: RXF 393
SF-295 = tested on: SF-295
K562 = tested on: K562
SNB-19 = tested on: SNB-19
NCI-H522 = tested on: NCI-H522
OVCAR-3 = tested on: OVCAR-3
NCI-H23 = tested on: NCI-H23
HL-60 = tested on: HL-60
MCF7 = tested on: MCF7
SN12C = tested on: SN12C
MOLT-4 = tested on: MOLT-4
U-251 = tested on: U-251
ACHN = tested on: ACHN
EKVX = tested on: EKVX
SF-268 = tested on: SF-268
M14 = tested on: M14
IGROV-1 = tested on: IGROV-1
SK-MEL-28 = tested on: SK-MEL-28

Row | SMILES | GI50 (NCI-H460) | GI50 (SW-620) | GI50 (RXF 393) | GI50 (SF-295) | GI50 (K562) | GI50 (SNB-19) | GI50 (NCI-H522) | GI50 (OVCAR-3) | GI50 (NCI-H23) | GI50 (HL-60) | GI50 (MCF7) | GI50 (SN12C) | GI50 (MOLT-4) | GI50 (U-251) | GI50 (ACHN) | GI50 (EKVX) | GI50 (SF-268) | GI50 (M14) | GI50 (IGROV-1) | GI50 (SK-MEL-28)
1 | O=C1N/C(=N/N=C/c2c[nH]c3ccccc23)N/C1=C\c1cccs1 | > 100 µM (inactive) | > 100 µM (inactive) | 75.3 µM (inactive) | > 100 µM (inactive) | > 100 µM (inactive) | 14.8 µM (inactive) | > 100 µM (inactive) | 30.7 µM (inactive) | > 100 µM (inactive) | 19.4 µM (inactive) | 41.4 µM (inactive) | > 100 µM (inactive) | > 100 µM (inactive) | 36.2 µM (inactive) | > 100 µM (inactive) | > 100 µM (inactive) | > 100 µM (inactive) | 75.3 µM (inactive) | > 100 µM (inactive) | > 100 µM (inactive)
2 | CN(CCCNc1ccc2ncn3c4ccccc4c(=O)c1c23)CCCN1C(=O)c2cccc3cc([N+](=O)[O-])cc(c23)C1=O | 0.00295 µM (active) | 0.00325 µM (active) | 0.0267 µM (active) | 0.0134 µM (active) | 0.0201 µM (active) | 0.0401 µM (active) | 0.00775 µM (active) | 1.1 µM (active) | 0.0208 µM (active) | 0.0358 µM (active) | 0.00541 µM (active) | 0.0125 µM (active) | 0.00565 µM (active) | 0.00966 µM (active) | 0.0012 µM (active) | 0.0561 µM (active) | 0.0247 µM (active) | 0.0481 µM (active) | 0.00948 µM (active) | 1.12 µM (inactive)
